Key:
Settings in all cases: Compound concentration 10.0 uM
[1] = target: GABA-A receptor; anion channel (Rattus norvegicus) (UniProt O09028+P15431+P18506+P18508+P19969+P20236+P23574+P23576+P28471+P28473+P30191+P62813+P63079+P63138+Q91ZM7+Q9ES14)
[2] = target: Beta-2 adrenergic receptor (Homo sapiens) (UniProt P07550)
[3] = target: Histamine H1 receptor (Homo sapiens) (UniProt P35367)
[4] = target: T1, Alpha-2A adrenergic receptor (Homo sapiens) (UniProt P08913)
T1 sequence (whole entry): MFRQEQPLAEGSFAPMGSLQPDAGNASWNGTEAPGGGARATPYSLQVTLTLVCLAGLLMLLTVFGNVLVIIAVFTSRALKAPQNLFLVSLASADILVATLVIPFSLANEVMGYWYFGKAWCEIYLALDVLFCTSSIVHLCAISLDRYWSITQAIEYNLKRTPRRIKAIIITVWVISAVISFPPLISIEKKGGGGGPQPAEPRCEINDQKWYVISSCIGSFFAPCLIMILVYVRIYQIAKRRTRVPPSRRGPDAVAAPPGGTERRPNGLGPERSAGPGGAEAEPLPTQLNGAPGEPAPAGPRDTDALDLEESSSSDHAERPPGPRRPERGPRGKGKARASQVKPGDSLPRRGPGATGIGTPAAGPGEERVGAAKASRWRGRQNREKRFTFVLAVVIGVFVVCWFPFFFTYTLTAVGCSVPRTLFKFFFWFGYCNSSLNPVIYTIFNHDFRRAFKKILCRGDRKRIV

[5] = target: T2, Muscarinic acetylcholine receptor M2 (Homo sapiens) (UniProt P08172)
T2 sequence (whole entry): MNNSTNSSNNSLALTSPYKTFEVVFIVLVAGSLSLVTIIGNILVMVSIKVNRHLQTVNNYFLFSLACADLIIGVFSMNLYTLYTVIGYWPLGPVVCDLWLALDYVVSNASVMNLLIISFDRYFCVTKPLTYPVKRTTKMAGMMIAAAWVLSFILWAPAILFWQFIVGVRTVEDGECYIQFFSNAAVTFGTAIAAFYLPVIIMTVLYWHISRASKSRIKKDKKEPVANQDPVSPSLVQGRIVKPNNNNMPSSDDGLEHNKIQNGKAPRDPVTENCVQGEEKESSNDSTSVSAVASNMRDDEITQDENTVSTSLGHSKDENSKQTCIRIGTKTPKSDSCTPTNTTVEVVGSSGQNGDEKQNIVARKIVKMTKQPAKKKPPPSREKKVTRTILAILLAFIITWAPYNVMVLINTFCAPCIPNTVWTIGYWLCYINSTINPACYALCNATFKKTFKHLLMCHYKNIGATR

[6] = target: D(1B) dopamine receptor (Homo sapiens) (UniProt P21918)
Sequence of D(1B) dopamine receptor (Homo sapiens) (P21918 whole entry): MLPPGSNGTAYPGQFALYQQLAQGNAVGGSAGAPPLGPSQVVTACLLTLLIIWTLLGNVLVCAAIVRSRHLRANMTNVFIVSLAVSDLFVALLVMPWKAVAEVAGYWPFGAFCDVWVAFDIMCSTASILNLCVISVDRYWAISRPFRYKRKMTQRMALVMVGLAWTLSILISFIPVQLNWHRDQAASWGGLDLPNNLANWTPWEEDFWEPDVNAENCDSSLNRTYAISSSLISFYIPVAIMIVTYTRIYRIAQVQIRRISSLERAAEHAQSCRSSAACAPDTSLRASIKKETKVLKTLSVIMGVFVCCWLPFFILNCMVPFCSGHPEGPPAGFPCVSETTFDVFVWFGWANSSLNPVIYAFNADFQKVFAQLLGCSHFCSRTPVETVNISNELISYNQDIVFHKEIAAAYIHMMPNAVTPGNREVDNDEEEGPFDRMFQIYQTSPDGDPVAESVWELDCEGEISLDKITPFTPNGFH

[7] = target: T3, Alpha-1A adrenergic receptor (Homo sapiens) (UniProt P35348)
T3 sequence (whole entry): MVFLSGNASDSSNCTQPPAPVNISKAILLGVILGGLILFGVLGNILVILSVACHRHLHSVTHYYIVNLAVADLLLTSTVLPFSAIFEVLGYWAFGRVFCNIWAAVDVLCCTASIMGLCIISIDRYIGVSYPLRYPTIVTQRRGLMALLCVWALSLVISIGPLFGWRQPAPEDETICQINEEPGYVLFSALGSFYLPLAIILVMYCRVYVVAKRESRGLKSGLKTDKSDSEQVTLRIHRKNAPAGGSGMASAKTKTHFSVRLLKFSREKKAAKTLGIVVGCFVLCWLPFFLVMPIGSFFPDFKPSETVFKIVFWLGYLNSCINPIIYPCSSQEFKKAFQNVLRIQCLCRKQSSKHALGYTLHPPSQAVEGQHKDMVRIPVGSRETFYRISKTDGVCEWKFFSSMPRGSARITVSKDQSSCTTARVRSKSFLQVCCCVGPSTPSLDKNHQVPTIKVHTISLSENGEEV

[8] = target: D(1A) dopamine receptor (Homo sapiens) (UniProt P21728)
Sequence of D(1A) dopamine receptor (Homo sapiens) (P21728 whole entry): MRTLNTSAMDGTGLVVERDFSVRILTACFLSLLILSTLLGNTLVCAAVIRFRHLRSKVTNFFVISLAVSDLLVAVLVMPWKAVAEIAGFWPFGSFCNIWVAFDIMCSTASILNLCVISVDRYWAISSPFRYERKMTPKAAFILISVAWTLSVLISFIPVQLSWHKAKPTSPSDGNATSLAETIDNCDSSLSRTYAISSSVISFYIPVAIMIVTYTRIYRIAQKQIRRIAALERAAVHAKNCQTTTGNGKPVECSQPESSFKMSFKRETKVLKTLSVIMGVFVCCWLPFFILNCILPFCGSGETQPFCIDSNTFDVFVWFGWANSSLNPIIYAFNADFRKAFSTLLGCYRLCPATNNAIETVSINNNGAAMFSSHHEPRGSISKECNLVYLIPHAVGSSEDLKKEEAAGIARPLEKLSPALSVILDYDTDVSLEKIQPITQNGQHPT

[9] = target: Mu-type opioid receptor (Homo sapiens) (UniProt P35372)
Sequence of Mu-type opioid receptor (Homo sapiens) (P35372 whole entry): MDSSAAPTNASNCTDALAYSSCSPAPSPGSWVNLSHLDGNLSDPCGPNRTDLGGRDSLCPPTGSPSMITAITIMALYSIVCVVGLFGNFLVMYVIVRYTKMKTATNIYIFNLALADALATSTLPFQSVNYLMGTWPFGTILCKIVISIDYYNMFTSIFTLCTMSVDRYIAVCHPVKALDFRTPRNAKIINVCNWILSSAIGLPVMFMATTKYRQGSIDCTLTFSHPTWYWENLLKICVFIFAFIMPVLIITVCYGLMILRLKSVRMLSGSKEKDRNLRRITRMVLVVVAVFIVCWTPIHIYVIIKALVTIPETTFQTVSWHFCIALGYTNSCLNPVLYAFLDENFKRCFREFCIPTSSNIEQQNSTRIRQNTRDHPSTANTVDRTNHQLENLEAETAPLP

[10] = target: Histamine H2 receptor (Homo sapiens) (UniProt P25021)
Sequence of Histamine H2 receptor (Homo sapiens) (P25021 whole entry): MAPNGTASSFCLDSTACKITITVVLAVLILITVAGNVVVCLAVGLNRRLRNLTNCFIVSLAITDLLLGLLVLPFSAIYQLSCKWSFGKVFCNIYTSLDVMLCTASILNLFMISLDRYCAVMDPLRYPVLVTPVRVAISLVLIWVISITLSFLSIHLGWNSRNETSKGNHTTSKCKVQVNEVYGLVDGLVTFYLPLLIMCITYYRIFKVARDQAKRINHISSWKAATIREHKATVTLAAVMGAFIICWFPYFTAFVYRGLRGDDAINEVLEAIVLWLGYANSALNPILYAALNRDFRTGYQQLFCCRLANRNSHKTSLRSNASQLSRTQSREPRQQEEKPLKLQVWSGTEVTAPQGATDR

[11] = target: 5-hydroxytryptamine receptor 6 (Homo sapiens) (UniProt P50406)
Sequence of 5-hydroxytryptamine receptor 6 (Homo sapiens) (P50406 whole entry): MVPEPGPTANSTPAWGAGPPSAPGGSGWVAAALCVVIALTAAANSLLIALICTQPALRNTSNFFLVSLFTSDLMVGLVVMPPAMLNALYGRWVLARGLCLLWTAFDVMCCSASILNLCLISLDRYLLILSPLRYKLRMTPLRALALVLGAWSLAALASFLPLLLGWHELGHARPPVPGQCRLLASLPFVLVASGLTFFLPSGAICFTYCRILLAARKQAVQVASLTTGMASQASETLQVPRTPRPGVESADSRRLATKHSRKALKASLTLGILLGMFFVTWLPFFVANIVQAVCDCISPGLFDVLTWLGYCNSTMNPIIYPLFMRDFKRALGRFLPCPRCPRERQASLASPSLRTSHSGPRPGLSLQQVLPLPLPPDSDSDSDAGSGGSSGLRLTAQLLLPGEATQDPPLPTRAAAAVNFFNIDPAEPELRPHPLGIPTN

[12] = target: Kappa-type opioid receptor (Homo sapiens) (UniProt P41145)
Sequence of Kappa-type opioid receptor (Homo sapiens) (P41145 whole entry): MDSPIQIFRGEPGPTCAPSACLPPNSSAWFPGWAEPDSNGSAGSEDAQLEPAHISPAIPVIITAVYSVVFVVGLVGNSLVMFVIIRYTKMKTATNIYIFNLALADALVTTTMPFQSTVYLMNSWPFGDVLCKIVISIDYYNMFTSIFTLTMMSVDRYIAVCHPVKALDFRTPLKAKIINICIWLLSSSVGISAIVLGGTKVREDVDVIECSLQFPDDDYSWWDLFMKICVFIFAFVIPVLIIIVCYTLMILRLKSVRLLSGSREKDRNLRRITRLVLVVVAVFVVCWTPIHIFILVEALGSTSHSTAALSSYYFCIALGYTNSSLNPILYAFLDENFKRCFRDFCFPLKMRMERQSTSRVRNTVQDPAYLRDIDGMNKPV

Rattus norvegicus = organism: Rattus norvegicus
[13] = target: 5-hydroxytryptamine receptor 2A (Homo sapiens) (UniProt P28223)
Sequence of 5-hydroxytryptamine receptor 2A (Homo sapiens) (P28223 whole entry): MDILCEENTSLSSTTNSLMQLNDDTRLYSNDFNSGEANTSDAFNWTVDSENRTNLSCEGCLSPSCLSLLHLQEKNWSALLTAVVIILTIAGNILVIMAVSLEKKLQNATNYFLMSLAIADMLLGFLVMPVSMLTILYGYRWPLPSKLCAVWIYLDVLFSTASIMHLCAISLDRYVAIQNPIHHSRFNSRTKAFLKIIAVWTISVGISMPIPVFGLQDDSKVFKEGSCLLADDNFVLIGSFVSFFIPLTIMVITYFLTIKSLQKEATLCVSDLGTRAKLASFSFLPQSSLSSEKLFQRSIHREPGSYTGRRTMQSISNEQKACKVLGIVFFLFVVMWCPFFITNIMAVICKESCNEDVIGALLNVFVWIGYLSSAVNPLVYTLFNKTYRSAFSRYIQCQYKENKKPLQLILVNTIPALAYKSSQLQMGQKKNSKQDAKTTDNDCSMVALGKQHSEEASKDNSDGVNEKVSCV

[14] = target: Alpha-1D adrenergic receptor (Homo sapiens) (UniProt P25100)
Sequence of Alpha-1D adrenergic receptor (Homo sapiens) (P25100 whole entry): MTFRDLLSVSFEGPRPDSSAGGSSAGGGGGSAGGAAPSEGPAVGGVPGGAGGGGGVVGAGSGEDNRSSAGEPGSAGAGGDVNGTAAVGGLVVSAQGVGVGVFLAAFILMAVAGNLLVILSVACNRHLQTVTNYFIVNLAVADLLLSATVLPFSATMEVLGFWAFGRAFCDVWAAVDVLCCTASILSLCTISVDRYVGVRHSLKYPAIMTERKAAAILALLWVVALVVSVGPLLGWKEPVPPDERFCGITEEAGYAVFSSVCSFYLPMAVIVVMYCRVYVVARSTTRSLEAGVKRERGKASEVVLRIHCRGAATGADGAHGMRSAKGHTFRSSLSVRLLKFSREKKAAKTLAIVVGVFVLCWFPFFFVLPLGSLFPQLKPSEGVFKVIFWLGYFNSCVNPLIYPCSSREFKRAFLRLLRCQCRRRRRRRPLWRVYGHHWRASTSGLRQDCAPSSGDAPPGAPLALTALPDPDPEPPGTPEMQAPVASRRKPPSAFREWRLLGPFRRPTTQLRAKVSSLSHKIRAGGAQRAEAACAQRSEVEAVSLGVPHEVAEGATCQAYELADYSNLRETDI

[15] = target: D(2) dopamine receptor (Homo sapiens) (UniProt P14416)
Sequence of D(2) dopamine receptor (Homo sapiens) (P14416 whole entry): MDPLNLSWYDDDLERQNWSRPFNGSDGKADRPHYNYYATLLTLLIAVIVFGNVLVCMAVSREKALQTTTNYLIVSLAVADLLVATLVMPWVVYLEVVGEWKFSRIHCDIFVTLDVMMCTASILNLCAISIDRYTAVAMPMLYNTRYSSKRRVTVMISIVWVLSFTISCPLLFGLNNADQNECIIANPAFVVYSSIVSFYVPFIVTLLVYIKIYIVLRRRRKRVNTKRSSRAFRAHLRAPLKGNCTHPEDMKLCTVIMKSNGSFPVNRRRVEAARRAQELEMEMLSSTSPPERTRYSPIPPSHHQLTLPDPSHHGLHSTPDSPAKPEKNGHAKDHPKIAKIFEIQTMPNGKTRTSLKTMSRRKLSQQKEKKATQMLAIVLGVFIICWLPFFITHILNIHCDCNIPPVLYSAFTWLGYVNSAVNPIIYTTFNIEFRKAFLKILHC

[16] = target: Delta-type opioid receptor (Homo sapiens) (UniProt P41143)
[17] = target: T4, Muscarinic acetylcholine receptor M1 (Homo sapiens) (UniProt P11229)
T4 sequence (whole entry): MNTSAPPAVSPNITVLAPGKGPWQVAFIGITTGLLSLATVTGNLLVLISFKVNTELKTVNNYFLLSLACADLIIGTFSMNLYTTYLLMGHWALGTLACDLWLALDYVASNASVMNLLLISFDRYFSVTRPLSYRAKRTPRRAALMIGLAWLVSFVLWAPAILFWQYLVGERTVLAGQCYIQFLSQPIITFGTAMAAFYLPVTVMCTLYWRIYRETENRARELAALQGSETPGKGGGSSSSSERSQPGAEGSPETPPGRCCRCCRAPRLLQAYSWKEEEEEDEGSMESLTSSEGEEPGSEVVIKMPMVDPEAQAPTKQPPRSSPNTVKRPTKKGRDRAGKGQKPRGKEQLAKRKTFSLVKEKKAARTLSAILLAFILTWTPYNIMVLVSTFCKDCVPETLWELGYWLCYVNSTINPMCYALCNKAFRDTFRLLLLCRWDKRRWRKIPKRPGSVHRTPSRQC

[18] = target: Muscarinic acetylcholine receptor M5 (Homo sapiens) (UniProt P08912)
[19] = target: Kappa-type opioid receptor (Homo sapiens) (UniProt P41145); remark: listed apart in the source

Sequence of Histamine H1 receptor (Homo sapiens) (P35367 whole entry): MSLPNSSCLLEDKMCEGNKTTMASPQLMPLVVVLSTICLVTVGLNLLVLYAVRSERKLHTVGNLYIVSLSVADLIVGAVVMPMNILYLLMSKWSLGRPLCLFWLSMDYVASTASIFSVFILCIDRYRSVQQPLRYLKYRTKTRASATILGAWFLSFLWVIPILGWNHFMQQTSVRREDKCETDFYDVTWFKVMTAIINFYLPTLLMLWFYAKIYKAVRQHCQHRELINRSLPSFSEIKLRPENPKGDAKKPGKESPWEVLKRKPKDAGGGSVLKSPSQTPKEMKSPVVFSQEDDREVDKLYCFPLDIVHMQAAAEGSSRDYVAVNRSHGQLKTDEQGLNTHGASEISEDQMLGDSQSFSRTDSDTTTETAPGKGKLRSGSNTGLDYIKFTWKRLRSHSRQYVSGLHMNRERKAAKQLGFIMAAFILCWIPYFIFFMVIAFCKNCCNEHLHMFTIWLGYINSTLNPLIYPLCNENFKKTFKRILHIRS
Sequence of Beta-2 adrenergic receptor (Homo sapiens) (P07550 whole entry, looked up): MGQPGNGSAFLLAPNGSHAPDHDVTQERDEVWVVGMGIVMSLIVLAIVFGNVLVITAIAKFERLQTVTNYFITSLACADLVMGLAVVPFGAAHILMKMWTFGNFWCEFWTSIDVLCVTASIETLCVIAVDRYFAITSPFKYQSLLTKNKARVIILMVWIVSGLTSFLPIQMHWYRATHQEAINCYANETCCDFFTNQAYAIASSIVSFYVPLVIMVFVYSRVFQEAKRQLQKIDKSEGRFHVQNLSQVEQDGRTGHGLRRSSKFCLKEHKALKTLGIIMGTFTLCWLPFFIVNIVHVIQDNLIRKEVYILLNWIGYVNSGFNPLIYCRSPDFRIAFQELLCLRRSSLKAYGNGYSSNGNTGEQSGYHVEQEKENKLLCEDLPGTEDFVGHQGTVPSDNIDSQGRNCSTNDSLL

Structure (SMILES) | inhibition [1] [%] | inhibition [2] [%] | inhibition [3] [%] | inhibition [4] [%] | inhibition [5] [%] | inhibition [6] [%] | inhibition [7] [%] | inhibition [8] [%] | inhibition [9] [%] | inhibition [10] [%] | inhibition [11] [%] | inhibition [12] [%] | inhibition (Rattus norvegicus) [%] | inhibition [13] [%] | inhibition [14] [%] | inhibition [15] [%] | inhibition [16] [%] | inhibition [17] [%] | inhibition [18] [%] | inhibition [19] [%]
Cc1c(N2CCNCC2)nc2ccc(Br)cc2c1C(=O)NC[C@H](CCC(=O)O)c1ccccc1Cl [BAY-403] | 38.3 | 18.4 | 17.5 | 65 | 13.8 | 5.3 | 23.3 | 31.6 | 40.9 | -4.15 | 1.76 | 17.7 | 20 | 38 | 16 | 2.75 | 36 | 8.42 | -0.13 | –
Cc1c(N2CCCC2)nc2ccc(Br)cc2c1C(=O)NC[C@H](CCC(=O)O)c1ccccc1Cl [BAY-6672] | 5.06 | 19.9 | 4.61 | -4.59 | 14.6 | 25 | 1.72 | 13.8 | 11.7 | 23.3 | 6.59 | 15.4 | -2.43 | 5.24 | 3.44 | 9.71 | 15.4 | 14.3 | 9.92 | 15

Source: ChEMBL document CHEMBL4630901 (2021)
